From US20140302568A1, “POLYOL OXIDASE” (NATIONAL UNIVERSITY CORPORATION KAGAWA UNIVERSITY, priority 2011, published 2014)

Legend:
[1] = test system: polyol oxidase of the B strain; test: Screening for oxidase activity, crude extract of B strain (peroxidase method, visual colour development); format: biochemical, B strain (filamentous fungus); details: substrate 0.5 M, room temperature
Protocol: (§1) Isolated microbial cells were inoculated into 5 mL of PDB, followed by shaking incubation at 28° C. for 1 week. In a 200-mL Erlenmeyer flask, 6 g of wheat bran and 15 mL of water were added and mixed with each other, and the resulting mixture was sterilized in an autoclave and used as a wheat bran culture medium. To the thus prepared wheat bran culture medium, the liquid-cultured microbial cells were added together with the total amount of the culture solution, and the resulting mixture was incubated at 28° C. After two-week incubation, an extract solution was prepared by a method described below and used for the measurement of the oxidase activity.
(§2) To the wheat bran culture medium in which the microbial cells were grown, 20 mL of a 10 mM potassium phosphate buffer (pH 7.0) was added, and the cells were well immersed therein and left to stand on ice for 1 hour, and then, the mixture was squeezed with a gauze pad. Thereafter, centrifugation was performed at 4° C. and 12,000 rpm for 18 minutes to remove fine particles, and the resulting solution was used as a crude extract solution.
(§3) In primary screening, a sugar mixed solution and an amino acid mixed solution were used in consideration of efficiency. The crude extract solution in which the activity was detected by the primary screening was subjected to secondary screening using the respective substrates individually at 0.5 M, and the substrate was specified.
(§4) As the measurement method for the oxidase activity, a peroxidase method was used. […]
(§5) In this method, the activity is measured by colorimetric determination of hydrogen peroxide generated by an oxidation reaction. […] The oxidized ABTS develops a blue color, and therefore, by visual observation or measurement of absorbance at 420 nm, the oxidase activity can be detected. […] After a reaction was allowed to proceed at room temperature, whether or not the color was developed was confirmed by visual observation, and the crude extract solution added to the reaction solution in which the color was developed was determined to have an oxidase activity.

[2] = test system: polyol oxidase derived from Penicillium sp. KU-1; test: Substrate specificity of the partially purified polyol oxidase (peroxidase method); format: biochemical; details: for Relative activity (%): substrate specificity, partially purified enzyme, relative to D-arabitol = 100
Protocol: As the measurement method for the oxidase activity, a peroxidase method was used. When a D-glucose oxidase is taken as an example, the principle of the peroxidase method is as follows.
In this method, the activity is measured by colorimetric determination of hydrogen peroxide generated by an oxidation reaction. When hydrogen peroxide generated by an oxidation reaction with a substrate is reacted with a peroxidase, an oxidation reaction of ABTS is catalyzed to generate oxidized ABTS. The oxidized ABTS develops a blue color, and therefore, by visual observation or measurement of absorbance at 420 nm, the oxidase activity can be detected. In the measurement of the activity, the crude extract solution obtained by extraction from the wheat bran culture medium was used. Further, as the control, a reaction solution in which water was added in place of the substrate was also prepared in the same manner. After a reaction was allowed to proceed at room temperature, whether or not the color was developed was confirmed by visual observation, and the crude extract solution added to the reaction solution in which the color was developed was determined to have an oxidase activity.
The measurement of the activity of the present enzyme was performed by measuring an increase in absorbance at 420 nm using the same peroxidase method as described above. The enzymatic reaction was initiated by adding D-mannitol, and the absorbance was measured over time for 10 minutes under the reaction conditions of 30° C. using a spectrophotometer U-2010 manufactured by Hitachi Co., Ltd. The reaction was performed by preparing the reaction solution so that the total amount thereof was 1 mL as shown in Table 11. “1 unit” was defined as the amount of the enzyme required to increase the absorbance at 420 nm by 1 for 1 minute.
Among the polyols used in the assay, the activity of the enzyme was high for D-arabitol, erythritol, D-mannitol, and D-sorbitol, which are listed in descending order of activity, and a high activity was not observed for the other polyols.

[3] = test system: polyol oxidase of the A strain; test: Screening for oxidase activity, crude extract of A strain (peroxidase method, visual colour development); format: biochemical, Penicillium sp. KU-1 (A strain); details: substrate 0.5 M, room temperature
Protocol: as §1, §2, §3, §4, §5

[4] = test system: D-glucose oxidase of the C strain; test: Screening for oxidase activity, crude extract of C strain (peroxidase method, visual colour development); format: biochemical, Aspergillus niger (C strain); details: substrate 0.5 M, room temperature
Protocol: as §1, with “activity. […]” for “activity.”
as §3, with “specified. […]” for “specified.”
In this method, the activity is measured by colorimetric determination of hydrogen peroxide generated by an oxidation reaction. […] The oxidized ABTS develops a blue color, and therefore, by visual observation or measurement of absorbance at 420 nm, the oxidase activity can be detected. […]

Row | SMILES | activity of the enzyme for the polyol (in words) [2] | Relative activity (%) [2] | reactivity as a substrate of the D-glucose oxidase of the C strain [4] | reactivity as a substrate of the enzyme of the B strain [1] | reactivity as a substrate of the oxidase of the A strain [3]
1 | OC[C@@H](O)[C@@H](O)[C@@H](O)[C@@H](O)CO [Allitol] | low | 0.45% | – | uses all of D-sorbitol, D-mannitol, and allitol as a substrate | does not show reactivity
2 | O=C[C@H](O)[C@@H](O)[C@H](O)[C@H](O)CO [D-glucose] | – | – | high substrate specificity for D-glucose | – | –
3 | OC[C@@H](O)[C@@H](O)[C@H](O)[C@H](O)CO [D-mannitol] | high | 79.0% | – | uses all of D-sorbitol, D-mannitol, and allitol as a substrate | uses D-sorbitol and D-mannitol as a substrate
4 | OC[C@@H](O)[C@@H](O)[C@H](O)[C@@H](O)CO [D-sorbitol] | high | 36.7% | – | uses all of D-sorbitol, D-mannitol, and allitol as a substrate | uses D-sorbitol and D-mannitol as a substrate
5 | OCC(O)CO [Glycerol] | – | 0.18% | – | – | –

Second part, led by results:

Row | activity of the enzyme for the polyol (in words) [2] | Relative activity (%) [2] | reactivity as a substrate of the D-glucose oxidase of the C strain [4] | SMILES | reactivity as a substrate of the enzyme of the B strain [1] | reactivity as a substrate of the oxidase of the A strain [3]
6 | high | 100% | – | OC[C@@H](O)C(O)[C@H](O)CO [D-arabitol] | – | –
7 | low | 0.3% | – | OC[C@@H](O)[C@H](O)[C@H](O)[C@H](O)CO [D-talitol] | – | –
8 | high | 80.5% | – | OC[C@@H](O)[C@@H](O)CO [Erythritol] | – | –
9 | – | 0.3% | – | OC[C@H](O)[C@H](O)[C@H](O)[C@@H](O)CO [L-talitol] | – | –
10 | low | – | – | OC[C@@H](O)[C@@H](O)[C@@H](O)CO [Ribitol] | – | –
11 | – | 1.2% | – | OC[C@@H](O)[C@H](O)[C@@H](O)CO [Xylitol] | – | –
